Data taken from publication PMC9448818 (Translational Psychiatry, 2022).

Assay: Dose-adjusted serum concentrations of drug and metabolite (LC-MS/MS) by CYP2C19 and CYP2D6 metabolizer group
Format: in vivo, human
Details: for B, ARI concentrations in serum, CYP2D6 IM+PM / B, DHA concentrations in serum, CYP2D6 IM+PM: vs NM, dose-adjusted
Description: The 16-week study protocol consisted of two phases following screening and baseline visits. […] Blood samples were collected on Weeks 2, 10, and 16 to measure medication levels and on Week 4 for pharmacogenetic analyses. The methods used for the quantification of serum levels of drug and metabolite concentrations is described in the Supplementary Methods.
Serum concentrations were adjusted for dosage (i.e., ng/mL/mg). Sampling time (i.e., hours since the last dose) was entered as a covariate in the regression models to account for when the medication was taken.
The CYP2C19 metabolizer group was not included as a fixed effect covariate, as CYP2C19 is not known to be involved in the metabolism of ARI. […]
Collection of blood samples and quantification of serum drug and metabolite concentrations Participants self-reported the time at which the last dosage of the study medication was taken during the collection of the blood samples. […]
major metabolites, (S-DCT) and (DHA), were performed at the CAMH Clinical Laboratory using LC-MS/MS technology. Briefly, a mix of deuterated internal standards (Cerilliant) was added to 100 µL of each serum specimen, calibrator (Cerilliant) and quality control (MassCheck Antidepressants/Neuroleptics, Level 1 and Level 2). Proteins were precipitated with 300 µL of 9:1 Acetonitrile:Methanol (Sigma-Aldrich) followed by 5 min centrifugation at 9000 rpm. 25 µL of each supernatant was diluted with 200 µL of 0.1% Formic acid (Sigma-Aldrich) and then analyzed on the LC-MS/MS platform consisting of ThermoFisher TSQ Quantum Ultra mass spectrometer coupled with ThermoFisher Surveyor LC pump and HTC PAL autosampler fitted with a Kinetex F5 2.6 µm, 100 x 2.1 mm column (Phenomenex). Six minute gradient elution with 0.1% Formic Acid (mobile phase A) and Acetonitrile (mobile phase B) was applied. Collision energies ranged from 14 to […]
calibration curve ranging from 10 to 1000 ng/mL for each analyte.
Vendor nominal means for quality controls were used to assess the assay accuracy for each of the four analytes […]
precision was considered acceptable assay performance.
Data was analyzed with ThemoFisher XCalibur software.

Row | Compound | B, ARI concentrations in serum, CYP2D6 IM+PM (Week 10, ESC+ARI arm) | B, ARI concentrations in serum, CYP2D6 IM+PM (Week 16, ESC+ARI arm) | lower DHA, CYP2D6 IM + PMs relative to NMs (Week 10, ESC + ARI) [%] | B, DHA concentrations in serum, CYP2D6 IM+PM (Week 10, ESC+ARI arm) | B, DHA concentrations in serum, CYP2D6 IM+PM (Week 16, ESC+ARI arm)
1 | O=C1CCc2ccc(OCCCCN3CCN(c4cccc(Cl)c4Cl)CC3)cc2N1 [ARI, Aripiprazole] | -2.48 | 1.54 |  |  | 
2 | O=c1ccc2ccc(OCCCCN3CCN(c4cccc(Cl)c4Cl)CC3)cc2[nH]1 [DHA, dehydroaripiprazole] |  |  | 17.4 | -0.99 | -0.47
